Where “and” joins values, the source holds several entries; their conditions need not be identical. Equal values may be shown once. Read-outs that look alike come from different tables or passages of the source.
Tests used:
[1] = tested on: A875 shp75 knock-down cells; assay: Cleaved PARP western blot (apoptosis), A875 shp75; type: cell-based, human
Description: One of the main biological readouts of p75^NTR activity in response to neurotrophins is the induction of caspase-mediated apoptotic cell death (Underwood and Coulson, [2008]; Friedman, [2010]; Ibáñez and Simi, [2012]).
COS7, A875 and WM115 cell lines were cultured under standard conditions in DMEM supplemented with 10% fetal calf serum, 100 units/ml penicillin, […] streptomycin, and 2.5 mM glutamine. All cells were authenticated and tested for mycoplasma contamination. A875-NT (control) and A875 shp75 (knockdown) cell lines were described previously (Goh et al, [2018]).

[2] = tested on: A875 NT cells; assay: Cell viability (Presto Blue), A875 NT; type: cell-based, human
Description: (§1) To measure the cytotoxic effect of Div17E5, A875 NT or shp75 cells were seeded at 2000 cells per well (in 100 μL DMEM) in a 96-well plate and incubated for 12 h. Next, Div17E5 at various concentrations was added and incubated at 37 °C in 5% CO2 for 2 days. Following treatment, 10 μL Presto Blue® (resazurin, ThermoFIsher) was added to each well of the 96-well plate and incubated for 2 h at 37 °C in 5% CO2. Cellular fluorescence in each well was measured at 535 nm excitation and 615 nm emission using a microtiter plate reader. Data was converted into the relative cell viability (%) from the fluorescence of cells in each treatment relative to that of the DMSO control group (set as 100%).

[3] = Cell viability (Presto Blue), A875 NT; type: cell-based, human; details: human, A875 NT cells, 2 days; for viability at 2 days, 1 uM: Div17E5 1 uM; for viability at 2 days, 1.5 uM: Div17E5 1.5 uM
Description: as §1

[4] = biological target: T1, p75^NTR I253A TMD mutant in COS cells (Rattus norvegicus, UniProt P07174, I253A); assay: Live cell homo-FRET anisotropy, I253A mutant p75NTR; type: cell-based; design: key to average anisotropy change, I253A: fold change vs mean of 6 pre-treatment time points (baseline ≈ 100); details: for average anisotropy change, I253A: 10 μM
T1 construct: COS cells expressing full length, GFP-tagged rat p75^NTR; expressed in transfected cells; host or cells: COS-7
T1 sequence (P07174 30-425 I253A): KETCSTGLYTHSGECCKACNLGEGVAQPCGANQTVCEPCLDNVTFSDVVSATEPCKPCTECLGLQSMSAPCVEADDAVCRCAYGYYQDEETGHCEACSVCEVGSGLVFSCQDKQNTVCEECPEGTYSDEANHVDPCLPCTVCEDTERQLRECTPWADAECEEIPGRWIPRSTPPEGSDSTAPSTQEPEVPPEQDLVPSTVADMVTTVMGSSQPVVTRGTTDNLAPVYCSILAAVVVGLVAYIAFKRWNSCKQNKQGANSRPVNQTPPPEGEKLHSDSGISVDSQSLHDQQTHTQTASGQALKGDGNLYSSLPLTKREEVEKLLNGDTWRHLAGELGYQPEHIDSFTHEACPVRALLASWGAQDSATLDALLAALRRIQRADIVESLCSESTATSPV
From the text: Previous real-time homo-FRET anisotropy studies by ours as well as other laboratories have shown that the intracellular death domains of p75^NTR are associated with each other (high FRET, low anisotropy state) under basal conditions (Vilar et al, [2009]; Sykes et al, [2012]), but neurotrophin binding induces transient separation of p75^NTR death domains (low FRET, high anisotropy state) manifested as oscillations in real-time anisotropy measurements (Lin et al, [2015]; Tanaka et al, [2016]; Goh et al, [2018]). COS cells expressing full length, GFP-tagged rat p75^NTR were treated with vehicle or Div17E5 and changes in anisotropy levels were recorded over time.
Anisotropy imaging in COS-7 cells that were transfected with a rat p75^NTR-EGFP* fusion construct was done as previously described (Goh, Lin et al, [2018]). EGFP* carries a […] mutation rendering monomeric EGFP. Changes in anisotropy were expressed as fold change at each time point (every 30 s) in comparison to the mean of 6 time points obtained prior to addition of treatment. Images were acquired using Nikon Ti-E based live cell epi-fluorescence microscope and MetaMorph software and analyzed using MatLab from Mathworks.

[5] = N=3, read-out: Cell Viability, Mean
[6] = read-out: Cell Viability, n1-n3

Oc1ccc(-c2cncc(Nc3ccc(Br)c(Cl)c3)n2)cc1 [Div17E5]
apoptosis (cleavage of PARP) after p75NTR knock-down [1]: significantly reduced the pro-apoptotic effects | Cell Viability, n1-n3 ([2]; Div17E5 0.5 uM, 2 days): 76% | Cell Viability, n1-n3 ([2]; Div17E5 1 uM, 2 days): 69% and 80% | Cell Viability, n1-n3 ([2]; Div17E5 1.5 uM, 2 days): 66% | Cell Viability, n1-n3 ([2]; Div17E5 2.5 uM, 2 days): 61% and 52% | Cell Viability, n1-n3 ([2]; Div17E5 5 uM, 2 days): 51% and 57% | Cell Viability, n1-n3 ([2]; Div17E5 7.5 uM, 2 days): 44% and 51% | Cell Viability, n1-n3 ([2]; Div17E5 10 uM, 2 days): 39% and 42% | viability at 0.5 µM ([2]; Homo sapiens, A875, 48 h, Div17E5 0.5 uM, 2 days, read-out: Cell Viability, n1-n3): 85% | viability at 2 µM ([2]; Homo sapiens, A875, 48 h, Div17E5 2 uM, 2 days, read-out: Cell Viability, n1-n3): 67% | viability at 2.5 µM ([2]; Homo sapiens, A875, 48 h, Div17E5 2.5 uM, 2 days, N=3, read-out: Cell Viability, Mean): 59% | viability at 2.5 µM ([2]; Homo sapiens, A875, 48 h, Div17E5 2.5 uM, 2 days, read-out: Cell Viability, n1-n3): 65% | viability at 5 µM ([2]; Homo sapiens, A875, 48 h, Div17E5 5 uM, 2 days, N=3, read-out: Cell Viability, Mean): 55% | viability at 5 µM ([2]; Homo sapiens, A875, 48 h, Div17E5 5 uM, 2 days, read-out: Cell Viability, n1-n3): 58% | viability at 7.5 µM ([2]; Homo sapiens, A875, 48 h, Div17E5 7.5 uM, 2 days, N=3, read-out: Cell Viability, Mean): 50% | viability at 7.5 µM ([2]; Homo sapiens, A875, 48 h, Div17E5 7.5 uM, 2 days, read-out: Cell Viability, n1-n3): 55% | viability at 10 µM ([2]; Homo sapiens, A875, 48 h, Div17E5 10 uM, 2 days, read-out: Cell Viability, n1-n3): 49% | cell viability ([2]; above 10 μM): sensitive | cell viability ([2]; dose-dependent): decreased viability | viability at 2 days, 0.5 uM ([3]; Div17E5 0.5 uM, N=3): 79% | viability at 2 days, 1 uM [3, 5]: 75% | viability at 2 days, 1 uM [3, 6]: 77% | viability at 2 days, 1.5 uM [3, 5]: 65% | viability at 2 days, 1.5 uM [3, 6]: 71% | real-time homo-FRET anisotropy, Ile253 to Ala mutant ([4]; 10 µM): blunted homo-FRET changes | average anisotropy change, I253A ([4]; 0 min after compound addition): 101 | average anisotropy change, I253A ([4]; 0.5 min after compound addition): 97 | average anisotropy change, I253A ([4]; 1 min after compound addition): 99 | average anisotropy change, I253A ([4]; 1.5 min after compound addition): 105 | average anisotropy change, I253A ([4]; 2 min after compound addition): 103 | average anisotropy change, I253A ([4]; 2.5 min after compound addition): 100 | average anisotropy change, I253A ([4]; 3 min after compound addition): 100 | average anisotropy change, I253A ([4]; 3.5 min after compound addition): 99 | average anisotropy change, I253A ([4]; 4 min after compound addition): 102 | average anisotropy change, I253A ([4]; 4.5 min after compound addition): 95 | average anisotropy change, I253A ([4]; 5 min after compound addition): 101 | average anisotropy change, I253A ([4]; 5.5 min after compound addition): 100 | average anisotropy change, I253A ([4]; 6 min after compound addition): 103 | average anisotropy change, I253A ([4]; 6.5 min after compound addition): 91 | average anisotropy change, I253A ([4]; 7 min after compound addition): 103 | average anisotropy change, I253A ([4]; 7.5 min after compound addition): 100 | average anisotropy change, I253A ([4]; 8 min after compound addition): 96 | average anisotropy change, I253A ([4]; 8.5 min after compound addition): 103 | average anisotropy change, I253A ([4]; 9 min after compound addition): 93 | average anisotropy change, I253A ([4]; 9.5 min after compound addition): 102 | average anisotropy change, I253A ([4]; 10 min after compound addition): 101 | average anisotropy change, I253A ([4]; 10.5 min after compound addition): 97 | average anisotropy change, I253A ([4]; 11 min after compound addition): 105 | average anisotropy change, I253A ([4]; 11.5 min after compound addition): 98 | average anisotropy change, I253A ([4]; 12 min after compound addition): 97 | average anisotropy change, I253A ([4]; 12.5 min after compound addition): 99 | average anisotropy change, I253A ([4]; 13 min after compound addition): 104 | average anisotropy change, I253A ([4]; 13.5 min after compound addition): 102 | average anisotropy change, I253A ([4]; 14 min after compound addition): 96 | average anisotropy change, I253A ([4]; 14.5 min after compound addition): 104 | average anisotropy change, I253A ([4]; 15 min after compound addition): 99 | average anisotropy change, I253A ([4]; -0.5 min after compound addition): 106 | average anisotropy change, I253A ([4]; -1 min after compound addition): 94 | average anisotropy change, I253A ([4]; -1.5 min after compound addition): 101 | average anisotropy change, I253A ([4]; -2 min after compound addition): 103 | average anisotropy change, I253A ([4]; -2.5 min after compound addition): 97 | average anisotropy change, I253A ([4]; -3 min after compound addition): 99

From article PMC12514245, “Impaired migration and lung invasion of human melanoma by a novel small molecule targeting the transmembrane domain of death receptor p75^NTR” (EMBO Molecular Medicine, 2025)
